What was measured:
[1] = test system: interleukin-1β production; assay: Inhibitory activity against interleukin-1β production (LPS-stimulated HL-60 cells, ELISA); assay type: cell-based; details: Table 1, lipopolysaccharide 10 μg/mL, culturing for 3 days, read-out: IL-1β production inhibiting activity IC50
Procedure: Inhibitory Activity Against Interleukin-1β Production
HL-60 cells were cultured for 4 days until confluence on RPMI 1640 medium with 10% fetal bovine serum (FBS) added thereto. The medium was centrifuged. The supernatant was discarded, and the cells were then suspended at 1×10^6 cells/mL on RPMI 1640 medium with 3% FBS, and lipopolysaccharide was added to give a final concentration of 10 μg/mL. The culture was inoculated at 1 mL/well to a 24-well plate. A sample compound was added at 1 μL/well, followed by culturing for 3 days. Three days later, the amount of interleukin-1β in each culture was determined by ELISA. Each IC50 value was determined by a comparison in yield with a control to which no test sample was added.

Water solubility test = assay type: physicochemical; details: for Solubility (%): purified water, from amount of water required for dissolution
Procedure: Experiment 2 (Water Solubility Test) Testing Method
Each sample compound was weighed in the amount shown in Table 3, to which purified water was added in 0.05 mL aliquots. The solubility (%) of the compound was determined based on the amount of water required for its dissolution.

[2] = Oral absorbability test on rats and/or mice; assay type: in vivo; details: orally administered to mice and/or rats, as in Experiment 3
Source text: Experiment 4 (Oral Absorbability Test on Rats and/or Mice)
In a similar manner as in Experiment 3, test compounds of Examples 23, 25, 143, 193, 245, 246, 247, 248 and 249 were orally administered to mice and/or rats to test their oral absorbability.

[3] = Oral absorbability test on rats (plasma levels by HPLC); assay type: in vivo; details: male SD rats, oral 10 mg/5 mL/kg, suspension in 0.5% MC, plasma 0.25-8 hours
Procedure: Experiment 3 (Oral Absorbability Test on Rats)
The compound of Example 83 and the comparative compound 3 were suspended at 2 mg/mL with a 0.5% MC solution in mortars, respectively, and were orally administered to male SD rats at 10 mg/5 mL/kg. Upon elapsed time of 0.25, 0.5, 1, 2, 4, 6 and 8 hours after the administration, blood samples were collected and then centrifuged to provide plasma samples. The plasma levels of the respective compounds were determined by HPLC. […] The compound of Example 83 is, therefore, useful as an orally dosable medicine.

IC50 [1] [nM]	Solubility (%) (Water solubility test)	Oral absorbability (FIGS. 2 to 6) [2]	Oral absorption (plasma levels, FIG. 1) [3]	Dissolution in the added water (in words) (Water solubility test; 100 mL purified water added)	SMILES
330	10	good absorbability			COc1ccc(-c2cc(CN(CCO)CCO)c(=O)n(CC3CC3)n2)cc1F.Cl [Example 23, 4-N,N-bis(2-hydroxyethyl)aminomethyl-2-cyclopropylmethyl-6-(3-fluoro-4-methoxyphenyl)-2H-pyridazin-3-one hydrochloride]
			good absorption		Cc1cc(-c2cc(CN3CCN(C)CC3)c(=O)n(CC(C)C)n2)ccc1F.Cl.Cl [Example 83, 6-(4-fluoro-3-methylphenyl)-2-isobutyl-4-(4-methyl-1-piperazinyl)methyl-2H-pyridazin-3-one dihydrochloride]
	<0.001		no substantial absorption	(insoluble)	CNC(=O)c1cc(-c2ccc(OC)c(F)c2)nn(CC2CC2)c1=O [compound 3, reference compound]

Source: patent US7211577B2, “Water-soluble phenylpyridazine derivative and medicine containing the same” (Kowa Co., Ltd., priority 2003, dated 2007)
